Source: patent publication US10738028B2, “Spiro three-membered ring, spiro five-membered ring peptide deformylase inhibitor and use thereof in antibacteria and anti-tumor” (priority 2016, dated 2020)

Legend:
Type in all cases: cell-based
[1] = tested on: Enterococcus faecalis (EFA); experiment: MIC, two-fold agar dilution (CLSI), clinical isolates
How it was run: (§1)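 Susceptibility was tested using CLSI two-fold agar dilution against the strains examined.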

[2] = tested on: Enterococcus faecium (EFM); experiment: as above
How it was run: as §1

[3] = tested on: Escherichia coli (including ESBLs, non-ESBLs); experiment: as above
How it was run: as §1

[4] = tested on: Moraxella catarrhalis (BCA); experiment: as above
How it was run: as §1

[5] = tested on: Streptococcus pneoumoniae (SPN); experiment: as above
How it was run: as §1

[6] = tested on: methicillin-resistant Staphylococcus aureus (MRSA); experiment: as above
How it was run: as §1

[7] = tested on: methicillin-resistant Staphylococcus epidermidis (MRSE); experiment: as above
How it was run: as §1

[8] = tested on: methicillin-sensitive Staphylococcus aureus (MSSA); experiment: as above
How it was run: as §1

[9] = tested on: methicillin-sensitive Staphylococcus epidermidis (MSSE); experiment: as above
How it was run: as §1

[10] = tested on: HCT-116 colorectal cancer cell line; experiment: CCK-8 proliferation inhibition; conditions: concentration of 30 μM, 72 hours, CCK-8; for HCT116 inhibition rate/%: 30 µM
How it was run: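 Growth inhibition is read by CCK-8 (1:10 dilution) after 72 h of compound exposure. HCT-116 cells grow in McCoy's 5A containing 10% newborn bovine serum at 2000 cells/well, with 1‰ DMSO as vehicle control.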

[11] = tested on: A549 lung cancer cell line; experiment: CCK-8 proliferation inhibition; conditions: concentration of 30 μM; for inhibition at 30 µM: Homo sapiens, A549, 72 h; for Inhibition of proliferation, Lung cancer A549: 72 hours, 30 µM
How it was run: (§2)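 Plating at 2000 cells/well, then incubation overnight at 37° C. Next, a range of compound concentrations for 72 hours (control 1‰ DMSO). Finally, medium decanted and CCK-8 diluted 1:10 added.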

[12] = tested on: BEL-7402 liver cancer cell line; experiment: CCK-8 proliferation inhibition; conditions: concentration of 30 μM; for Inhibition of proliferation, Liver cancer BEL-7402: 72 hours, 30 µM
How it was run: as §2

[13] = tested on: MGC-803 gastric cancer cell line; experiment: CCK-8 proliferation inhibition; conditions: concentration of 30 μM; for inhibition at 30 µM: Homo sapiens, MGC-803, 72 h
How it was run: as §2

## CCCC[C@H](CC(=O)NO)C(=O)N1CC2(CCCC2)C[C@H]1C(=O)Nc1ccc(F)cn1 [Example 78, (S)—N-(5-fluoropyridin-2-yl)-2-((R)-2-(2-(hydroxyamino)-2-oxoethyl)hexanoyl)-2-spiro[4.4]nonane-3-carboxamide]
[1]; strain EFA 15-1
  Anti-bacterial activity (MIC): > 32 µg/mL
[1]; strain EFA 15-2
  Anti-bacterial activity (MIC): > 32 µg/mL
[1]; strain EFA 15-3
  Anti-bacterial activity (MIC): > 32 µg/mL
[1]; strain EFA 15-4
  Anti-bacterial activity (MIC): > 32 µg/mL
[1]; strain EFA 15-5
  Anti-bacterial activity (MIC): > 32 µg/mL
[1]; strain EFA 15-6
  Anti-bacterial activity (MIC): > 32 µg/mL
[1]; strain EFA 15-9
  Anti-bacterial activity (MIC): > 32 µg/mL
[2]; strain EFM 15-1
  Anti-bacterial activity (MIC): > 32 µg/mL
[2]; strain EFM 15-2
  Anti-bacterial activity (MIC): > 32 µg/mL
[2]; strain EFM 15-3
  Anti-bacterial activity (MIC): > 32 µg/mL
[2]; strain EFM 15-4
  Anti-bacterial activity (MIC): 2 µg/mL
[2]; strain EFM 15-5
  Anti-bacterial activity (MIC): 0.25 µg/mL
[2]; strain EFM 15-6
  Anti-bacterial activity (MIC): 1 µg/mL
[3]; clinical isolate ECO+ 15-1
  Anti-bacterial activity (MIC), strain ECO+ 15-1: 16 µg/mL
[3]; clinical isolate ECO+ 15-2
  Anti-bacterial activity (MIC), strain ECO+ 15-2: > 32 µg/mL
[3]; clinical isolate ECO+ 15-3
  Anti-bacterial activity (MIC), strain ECO+ 15-3: > 32 µg/mL
[3]; clinical isolate ECO+ 15-4
  Anti-bacterial activity (MIC), strain ECO+ 15-4: > 32 µg/mL
[3]; clinical isolate ECO− 15-1
  Anti-bacterial activity (MIC), strain ECO− 15-1: > 32 µg/mL
[3]; clinical isolate ECO− 15-2
  Anti-bacterial activity (MIC), strain ECO− 15-2: > 32 µg/mL
[3]; clinical isolate ECO− 15-3
  Anti-bacterial activity (MIC), strain ECO− 15-3: > 32 µg/mL
[3]; clinical isolate ECO− 15-4
  Anti-bacterial activity (MIC), strain ECO− 15-4: > 32 µg/mL
[4]; strain BCA 14-1
  Anti-bacterial activity (MIC): 0.5 µg/mL
[4]; strain BCA 14-4
  Anti-bacterial activity (MIC): 1 µg/mL
[4]; strain BCA 14-5
  Anti-bacterial activity (MIC): 1 µg/mL
[4]; strain BCA 14-6
  Anti-bacterial activity (MIC): 0.5 µg/mL
[4]; strain BCA 14-7
  Anti-bacterial activity (MIC): 0.5 µg/mL
[4]; strain BCA 14-8
  Anti-bacterial activity (MIC): 0.25 µg/mL
[4]; strain BCA 14-10
  Anti-bacterial activity (MIC): 0.25 µg/mL
[5]; strain SPN 16-2
  Anti-bacterial activity (MIC): 0.03 µg/mL
[5]; strain SPN 16-4
  Anti-bacterial activity (MIC): 0.25 µg/mL
[6]; clinical isolate MRSA 15-1
  Anti-bacterial activity (MIC), strain MRSA 15-1: 0.06 µg/mL
[6]; clinical isolate MRSA 15-2
  Anti-bacterial activity (MIC), strain MRSA 15-2: 0.5 µg/mL
[6]; clinical isolate MRSA 15-3
  Anti-bacterial activity (MIC), strain MRSA 15-3: 0.125 µg/mL
[6]; clinical isolate MRSA 15-4
  Anti-bacterial activity (MIC), strain MRSA 15-4: 0.5 µg/mL
[7]; clinical isolate MRSE 15-1
  Anti-bacterial activity (MIC), strain MRSE 15-1: 0.125 µg/mL
[7]; clinical isolate MRSE 15-2
  Anti-bacterial activity (MIC), strain MRSE 15-2: 1 µg/mL
[7]; clinical isolate MRSE 15-3
  Anti-bacterial activity (MIC), strain MRSE 15-3: 1 µg/mL
[7]; clinical isolate MRSE 15-7
  Anti-bacterial activity (MIC), strain MRSE 15-7: 1 µg/mL
[8]; clinical isolate MSSA 15-3
  Anti-bacterial activity (MIC), strain MSSA 15-3: 0.5 µg/mL
[8]; clinical isolate MSSA 15-4
  Anti-bacterial activity (MIC), strain MSSA 15-4: 0.125 µg/mL
[8]; clinical isolate MSSA 15-5
  Anti-bacterial activity (MIC), strain MSSA 15-5: 0.03 µg/mL
[8]; clinical isolate MSSA 15-6
  Anti-bacterial activity (MIC), strain MSSA 15-6: > 32 µg/mL
[9]; clinical isolate MSSE 15-3
  Anti-bacterial activity (MIC), strain MSSE 15-3: 0.25 µg/mL
[9]; clinical isolate MSSE 15-4
  Anti-bacterial activity (MIC), strain MSSE 15-4: 0.25 µg/mL
[9]; clinical isolate MSSE 15-5
  Anti-bacterial activity (MIC), strain MSSE 15-5: 0.25 µg/mL
[9]; clinical isolate MSSE 15-6
  Anti-bacterial activity (MIC), strain MSSE 15-6: 0.03 µg/mL
[10]; Homo sapiens, HCT-116, 72 h, read-out: HCT116 inhibition rate/%
  inhibition at 30 µM: > 50%
[10]
  HCT116 inhibition rate/%: 52%
[11]
  inhibition at 30 µM: > 50%
  Inhibition of proliferation, Lung cancer A549: 54%
[12]; Homo sapiens, Bel-7402, 72 h
  inhibition at 30 µM: > 50%
[12]
  Inhibition of proliferation, Liver cancer BEL-7402: 67%
[13]
  inhibition at 30 µM: 44%

## CCCC[C@H](CC(=O)NO)C(=O)N1CC2(CCCC2)C[C@H]1C(=O)Nc1ncc(C)s1 [Example 79, (S)-2-((R)-2-(2-(hydroxyamino)-2-oxoethyl)hexanoyl)-N-(5-methylthiazol-2-yl)-2-azaspiro[4.4]nonane-3-amide]
[1]; strain EFA 15-1
  Anti-bacterial activity (MIC): 32 µg/mL
[1]; strain EFA 15-2
  Anti-bacterial activity (MIC): 32 µg/mL
[1]; strain EFA 15-3
  Anti-bacterial activity (MIC): 32 µg/mL
[1]; strain EFA 15-4
  Anti-bacterial activity (MIC): 32 µg/mL
[1]; strain EFA 15-5
  Anti-bacterial activity (MIC): 32 µg/mL
[1]; strain EFA 15-6
  Anti-bacterial activity (MIC): 32 µg/mL
[1]; strain EFA 15-9
  Anti-bacterial activity (MIC): 32 µg/mL
[2]; strain EFM 15-1
  Anti-bacterial activity (MIC): 32 µg/mL
[2]; strain EFM 15-2
  Anti-bacterial activity (MIC): 32 µg/mL
[2]; strain EFM 15-3
  Anti-bacterial activity (MIC): 32 µg/mL
[2]; strain EFM 15-4
  Anti-bacterial activity (MIC): 1 µg/mL
[2]; strain EFM 15-5
  Anti-bacterial activity (MIC): 1 µg/mL
[2]; strain EFM 15-6
  Anti-bacterial activity (MIC): 1 µg/mL
[3]; strain ECO+ 15-1
  Anti-bacterial activity (MIC): 32 µg/mL
[3]; strain ECO+ 15-2
  Anti-bacterial activity (MIC): > 32 µg/mL
[3]; strain ECO+ 15-3
  Anti-bacterial activity (MIC): > 32 µg/mL
[3]; strain ECO+ 15-4
  Anti-bacterial activity (MIC): > 32 µg/mL
[3]; strain ECO− 15-1
  Anti-bacterial activity (MIC): > 32 µg/mL
[3]; strain ECO− 15-2
  Anti-bacterial activity (MIC): > 32 µg/mL
[3]; strain ECO− 15-3
  Anti-bacterial activity (MIC): > 32 µg/mL
[3]; strain ECO− 15-4
  Anti-bacterial activity (MIC): > 32 µg/mL
[4]; strain BCA 14-1
  Anti-bacterial activity (MIC): 0.25 µg/mL
[4]; strain BCA 14-4
  Anti-bacterial activity (MIC): 1 µg/mL
[4]; strain BCA 14-5
  Anti-bacterial activity (MIC): 0.25 µg/mL
[4]; strain BCA 14-6
  Anti-bacterial activity (MIC): 1 µg/mL
[4]; strain BCA 14-7
  Anti-bacterial activity (MIC): 0.5 µg/mL
[4]; strain BCA 14-8
  Anti-bacterial activity (MIC): 0.5 µg/mL
[4]; strain BCA 14-10
  Anti-bacterial activity (MIC): 0.25 µg/mL
[5]; strain SPN 16-2
  Anti-bacterial activity (MIC): 0.06 µg/mL
[5]; strain SPN 16-4
  Anti-bacterial activity (MIC): 0.25 µg/mL
[6]; strain MRSA 15-1
  Anti-bacterial activity (MIC): 0.25 µg/mL
[6]; strain MRSA 15-2
  Anti-bacterial activity (MIC): 0.25 µg/mL
[6]; strain MRSA 15-3
  Anti-bacterial activity (MIC): 0.125 µg/mL
[6]; strain MRSA 15-4
  Anti-bacterial activity (MIC): 0.25 µg/mL
[7]; strain MRSE 15-1
  Anti-bacterial activity (MIC): 0.25 µg/mL
[7]; strain MRSE 15-2
  Anti-bacterial activity (MIC): 2 µg/mL
[7]; strain MRSE 15-3
  Anti-bacterial activity (MIC): 2 µg/mL
[7]; strain MRSE 15-7
  Anti-bacterial activity (MIC): 2 µg/mL
[8]; strain MSSA 15-3
  Anti-bacterial activity (MIC): 0.5 µg/mL
[8]; strain MSSA 15-4
  Anti-bacterial activity (MIC): 0.125 µg/mL
[8]; strain MSSA 15-5
  Anti-bacterial activity (MIC): 0.125 µg/mL
[8]; strain MSSA 15-6
  Anti-bacterial activity (MIC): > 32 µg/mL
[9]; strain MSSE 15-3
  Anti-bacterial activity (MIC): 0.25 µg/mL
[9]; strain MSSE 15-4
  Anti-bacterial activity (MIC): 1 µg/mL
[9]; strain MSSE 15-5
  Anti-bacterial activity (MIC): 1 µg/mL
[9]; strain MSSE 15-6
  Anti-bacterial activity (MIC): 0.03 µg/mL
[10]
  HCT116 inhibition rate/%: 75%
[11]
  inhibition at 30 µM: > 50%
  Inhibition of proliferation, Lung cancer A549: 50%
[12]
  Inhibition of proliferation, Liver cancer BEL-7402: 77%
[13]
  inhibition at 30 µM: > 50%
[13]; 72 hours, 30 µM
  Inhibition of proliferation, Gastric cancer MGC-803: 54%
